Measured values as given in patent US8440708B2, “Triazole-substituted arylamides as P2X3 and P2X2/3 antagonists” (Roche Palo Alto LLC, priority 2007, dated 2013).

Tests used:
human P2X2/3 receptor = molecular target: T1, human P2X2/3 receptor (Homo sapiens, UniProt P56373+Q9UBL9); experiment: P2X3/P2X2/3 FLIPR (Fluorometric Imaging Plate Reader) Assay, P2X2/3; format: cell-based; settings: CHO-K1 cells transfected with human P2X2/3; agonist α,β-meATP 5 μM; Table 1; read-out: P2X2/3 pKi (converted)
T1 construct: expressed in transfected cells; host or cells: CHO-K1
T1 sequence (Q9UBL9 1-471): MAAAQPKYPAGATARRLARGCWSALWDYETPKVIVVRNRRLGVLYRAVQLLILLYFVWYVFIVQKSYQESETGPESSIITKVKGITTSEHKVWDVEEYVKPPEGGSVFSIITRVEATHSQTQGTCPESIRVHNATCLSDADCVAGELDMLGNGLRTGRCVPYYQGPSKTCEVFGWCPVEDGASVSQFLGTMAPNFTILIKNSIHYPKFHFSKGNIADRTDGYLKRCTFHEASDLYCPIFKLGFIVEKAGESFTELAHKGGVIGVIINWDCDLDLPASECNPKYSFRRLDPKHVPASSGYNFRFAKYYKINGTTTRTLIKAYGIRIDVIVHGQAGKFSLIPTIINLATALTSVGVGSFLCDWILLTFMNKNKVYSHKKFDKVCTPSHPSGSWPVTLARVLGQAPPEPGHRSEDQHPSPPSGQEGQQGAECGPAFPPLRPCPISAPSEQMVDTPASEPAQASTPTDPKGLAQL
T1 sequence (P56373 1-397): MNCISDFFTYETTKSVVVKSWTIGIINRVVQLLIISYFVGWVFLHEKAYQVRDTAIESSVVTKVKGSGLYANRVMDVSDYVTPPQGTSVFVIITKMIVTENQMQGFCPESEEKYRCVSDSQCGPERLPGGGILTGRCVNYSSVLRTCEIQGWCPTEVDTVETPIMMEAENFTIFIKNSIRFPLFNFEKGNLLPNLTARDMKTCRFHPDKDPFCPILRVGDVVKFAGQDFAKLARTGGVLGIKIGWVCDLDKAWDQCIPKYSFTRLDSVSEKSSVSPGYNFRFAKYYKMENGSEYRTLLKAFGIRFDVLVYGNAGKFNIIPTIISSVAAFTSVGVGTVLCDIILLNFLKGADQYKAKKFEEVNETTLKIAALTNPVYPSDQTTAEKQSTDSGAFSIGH
Method in brief: (§1)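 Transfected CHO-K1 (rat P2X3; human P2X2/3), Fluo-3 AM 2 μM 1 h 37 °C, buffer HBSS/10 mM HEPES/2 mM CaCl2/2.5 mM probenecid. Cpd 20 min RT, then α,β-meATP 1 μM (P2X3) / 5 μM (P2X2/3). Peak Ca2+ signal, nonlinear regression.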

rat P2X3 receptor = molecular target: T2, rat P2X3 receptor (Rattus norvegicus, UniProt P49654); experiment: P2X3/P2X2/3 FLIPR (Fluorometric Imaging Plate Reader) Assay, P2X3; format: cell-based; settings: CHO-K1 cells transfected with rat P2X3; agonist α,β-meATP 1 μM; Table 1; read-out: P2X3 pKi (converted)
T2 construct: expressed in transfected cells; host or cells: CHO-K1
T2 sequence (P49654 1-397): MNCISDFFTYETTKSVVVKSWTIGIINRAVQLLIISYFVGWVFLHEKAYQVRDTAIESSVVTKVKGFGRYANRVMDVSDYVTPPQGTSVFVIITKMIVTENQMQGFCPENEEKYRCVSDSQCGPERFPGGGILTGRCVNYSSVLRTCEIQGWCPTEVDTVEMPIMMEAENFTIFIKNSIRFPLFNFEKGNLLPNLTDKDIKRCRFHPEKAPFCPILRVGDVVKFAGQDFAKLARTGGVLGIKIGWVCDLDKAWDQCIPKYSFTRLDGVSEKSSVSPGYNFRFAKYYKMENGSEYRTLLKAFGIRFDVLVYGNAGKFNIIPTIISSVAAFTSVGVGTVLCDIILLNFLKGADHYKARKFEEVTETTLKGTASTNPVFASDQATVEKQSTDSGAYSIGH
Method in brief: as §1

Row | Ki (human P2X2/3 receptor) | Ki (rat P2X3 receptor) | Compound
1 | 0.389 µM | 0.0191 µM | Cc1ccc(-c2cc(C(=O)NC(C)c3cnccn3)cc(-n3ncnc3C3CC3)c2)nc1 (stereo not shown) [Compound 60, 3-(5-Cyclopropyl-[1,2,4]triazol-1-yl)-5-(5-methyl-pyridin-2-yl)-N-(1-pyrazin-2-yl-ethyl)-benzamide]
2 | 0.0513 µM | 0.00525 µM | Cc1ccc(-c2cc(C(=O)NC(C)c3cnccn3)cc(-n3ncnc3C(C)N(C)C)c2)cc1 (stereo not shown) [Compound 61, 5-[5-(1-Dimethylamino-ethyl)-[1,2,4]triazol-1-yl]-4′-methyl-biphenyl-3-carboxylic acid (1-pyrazin-2-yl-ethyl)-amide]
3 | 0.0437 µM | 0.00525 µM | Cc1ccc(-c2cc(C(=O)NCc3cnc(C)cn3)cc(-n3ncnc3C(C)N(C)C)c2)cc1 (stereo not shown) [Compound 62, 5-[5-(1-Dimethylamino-ethyl)-[1,2,4]triazol-1-yl]-4′-methyl-biphenyl-3-carboxylic acid (5-methyl-pyrazin-2-ylmethyl)-amide]
4 | 10 µM | 0.339 µM | CCCc1ncnn1-c1cc(C(=O)NC(C)CN(C)C)cc(-c2ccc(C)cc2)c1 (stereo not shown) [Compound 63, 4′-Methyl-5-(5-propyl-[1,2,4]triazol-1-yl)-biphenyl-3-carboxylic acid (2-dimethylamino-1-methyl-ethyl)-amide]
5 | 0.309 µM | 0.00457 µM | Cc1ccc(-c2cc(C(=O)NC3CC3)cc(-n3ncnc3C(F)(F)F)c2)cc1 [Compound 64, 4′-Methyl-5-(5-trifluoromethyl-[1,2,4]triazol-1-yl)-biphenyl-3-carboxylic acid cyclopropylamide]
6 | 2 µM | 0.00676 µM | Cc1ccc(-c2cc(C(=O)N[C@@H](C)CO)cc(-n3ncnc3C(F)(F)F)c2)cc1 [Compound 65, 4′-Methyl-5-(5-trifluoromethyl-[1,2,4]triazol-1-yl)-biphenyl-3-carboxylic acid ((S)-2-hydroxy-1-methyl-ethyl)-amide]
7 | 0.0407 µM | 0.00372 µM | Cc1ccc(-c2cc(C(=O)NC(C)c3cnccn3)cc(-n3ncnc3C(F)(F)F)c2)cc1 (stereo not shown) [Compound 66, 4′-Methyl-5-(5-trifluoromethyl-[1,2,4]triazol-1-yl)-biphenyl-3-carboxylic acid (1-pyrazin-2-yl-ethyl)-amide]
8 | 0.049 µM | 0.00631 µM | Cc1ccc(-c2cc(C(=O)NCc3cnc(C)cn3)cc(-n3ncnc3C(F)(F)F)c2)cc1 [Compound 67, 4′-Methyl-5-(5-trifluoromethyl-[1,2,4]triazol-1-yl)-biphenyl-3-carboxylic acid (5-methyl-pyrazin-2-ylmethyl)-amide]
9 | 0.0269 µM | 0.00186 µM | Cc1ccc(-c2cc(C(=O)NCc3cnc(C)cn3)cc(-n3ncnc3C(C)(F)F)c2)nc1 [Compound 69, 3-[5-(1,1-Difluoro-ethyl)-[1,2,4]triazol-1-yl]-N-(5-methyl-pyrazin-2-ylmethyl)-5-(5-methyl-pyridin-2-yl)-benzamide]
10 | 0.0427 µM | 0.00191 µM | Cc1ccc(-c2cc(C(=O)NC(C)c3cnccn3)cc(-n3ncnc3C(C)(F)F)c2)nc1 (stereo not shown) [Compound 70, 3-[5-(1,1-Difluoro-ethyl)-[1,2,4]triazol-1-yl]-5-(5-methyl-pyridin-2-yl)-N-(1-pyrazin-2-yl-ethyl)-benzamide]
11 | 2.29 µM | 0.00282 µM | Cc1ccc(-c2cc(C(=O)N[C@@H](C)CO)cc(-n3ncnc3C(C)(F)F)c2)nc1 [Compound 71, 3-[5-(1,1-Difluoro-ethyl)-[1,2,4]triazol-1-yl]-N-((S)-2-hydroxy-1-methyl-ethyl)-5-(5-methyl-pyridin-2-yl)-benzamide]
12 | 2.51 µM | 0.00912 µM | Cc1ccc(-c2cc(C(=O)NC3CC3)cc(-n3ncnc3C(C)(F)F)c2)nc1 [Compound 72, N-Cyclopropyl-3-[5-(1,1-difluoro-ethyl)-[1,2,4]triazol-1-yl]-5-(5-methyl-pyridin-2-yl)-benzamide]
13 | 2.19 µM | 0.00891 µM | C[C@@H](CO)NC(=O)c1cc(-c2ccc(Cl)cn2)cc(-n2ncnc2C(C)(F)F)c1 [Compound 73, 3-(5-Chloro-pyridin-2-yl)-5-[5-(1,1-difluoro-ethyl)-[1,2,4]triazol-1-yl]-N-((S)-2-hydroxy-1-methyl-ethyl)-benzamide]
14 | 0.0603 µM | 0.00417 µM | CC(C)Cc1ncnn1-c1cc(C(=O)NC(C)c2cnccn2)cc(-c2ccc(Cl)cn2)c1 (stereo not shown) [Compound 74, 3-(5-Chloro-pyridin-2-yl)-5-(5-isobutyl-[1,2,4]triazol-1-yl)-N-(1-pyrazin-2-yl-ethyl)-benzamide]
15 | 0.741 µM | 0.0102 µM | CC(NC(=O)c1cc(-c2ccc(Cl)cn2)cc(-n2ncnc2C(F)F)c1)c1cnccn1 (stereo not shown) [Compound 76, 3-(5-Chloro-pyridin-2-yl)-5-(5-difluoromethyl-[1,2,4]triazol-1-yl)-N-(1-pyrazin-2-yl-ethyl)-benzamide]
16 | 0.724 µM | 0.00977 µM | Cc1cnc(CNC(=O)c2cc(-c3ccc(Cl)cn3)cc(-n3ncnc3C(F)F)c2)cn1 [Compound 77, 3-(5-Chloro-pyridin-2-yl)-5-(5-difluoromethyl-[1,2,4]triazol-1-yl)-N-(5-methyl-pyrazin-2-ylmethyl)-benzamide]
17 | 8.71 µM | 0.0759 µM | C[C@@H](CO)NC(=O)c1cc(-c2ccc(Cl)cn2)cc(-n2ncnc2C(F)F)c1 [Compound 78, 3-(5-Chloro-pyridin-2-yl)-5-(5-difluoromethyl-[1,2,4]triazol-1-yl)-N-((S)-2-hydroxy-1-methyl-ethyl)-benzamide]
18 | 0.372 µM | 0.00851 µM | CC(NC(=O)c1cc(-c2ccc(Cl)cn2)cc(-n2ncnc2C(F)(F)F)c1)c1cnccn1 (stereo not shown) [Compound 79, 3-(5-Chloro-pyridin-2-yl)-N-(1-pyrazin-2-yl-ethyl)-5-(5-trifluoro-methyl-[1,2,4]triazol-1-yl)-benzamide]
19 | 0.275 µM | 0.00891 µM | Cc1cnc(CNC(=O)c2cc(-c3ccc(Cl)cn3)cc(-n3ncnc3C(F)(F)F)c2)cn1 [Compound 80, 3-(5-Chloro-pyridin-2-yl)-N-(5-methyl-pyrazin-2-ylmethyl)-5-(5-trifluoromethyl-[1,2,4]triazol-1-yl)-benzamide]
20 | 3.89 µM | 0.0457 µM | C[C@@H](CO)NC(=O)c1cc(-c2ccc(Cl)cn2)cc(-n2ncnc2C(F)(F)F)c1 [Compound 81, 3-(5-Chloro-pyridin-2-yl)-N-((S)-2-hydroxy-1-methyl-ethyl)-5-(5-trifluoromethyl-[1,2,4]triazol-1-yl)-benzamide]
21 | 1.35 µM | 0.00603 µM | Cc1ccc(-c2cc(C(=O)NCc3cnc(C)cn3)cc(-n3ncnc3C(C)(C)C)c2)nc1 [Compound 82, 3-(5-tert-Butyl-[1,2,4]triazol-1-yl)-N-(5-methyl-pyrazin-2-ylmethyl)-5-(5-methyl-pyridin-2-yl)-benzamide]
22 | 0.115 µM | 0.0123 µM | CC(NC(=O)c1cc(-c2ccc(Cl)cn2)cc(-n2ncnc2C(C)(C)C)c1)c1cnccn1 (stereo not shown) [Compound 83, 3-(5-tert-Butyl-[1,2,4]triazol-1-yl)-5-(5-chloro-pyridin-2-yl)-N-(1-pyrazin-2-yl-ethyl)-benzamide]
23 | 0.427 µM | 0.0141 µM | Cc1cnc(CNC(=O)c2cc(-c3ccc(Cl)cn3)cc(-n3ncnc3C(C)(C)C)c2)cn1 [Compound 84, 3-(5-tert-Butyl-[1,2,4]triazol-1-yl)-5-(5-chloro-pyridin-2-yl)-N-(5-methyl-pyrazin-2-ylmethyl)-benzamide]
